Experimental data reported in BindingDB's records for patent US20240158408 (280 Bio, 2024).

What was measured:
[1] = target: Phosphatidylinositol 4,5-bisphosphate 3-kinase catalytic subunit alpha isoform (Homo sapiens, UniProt P42336); assay: ADP-Glo Kinase Assay
[2] = target: Phosphatidylinositol 4,5-bisphosphate 3-kinase catalytic subunit alpha isoform [H1047R] (Homo sapiens, UniProt P42336, H1047R)
Phosphatidylinositol 4,5-bisphosphate 3-kinase catalytic subunit alpha isoform [H1047R], sequence (P42336 whole entry H1047R, canonical isoform): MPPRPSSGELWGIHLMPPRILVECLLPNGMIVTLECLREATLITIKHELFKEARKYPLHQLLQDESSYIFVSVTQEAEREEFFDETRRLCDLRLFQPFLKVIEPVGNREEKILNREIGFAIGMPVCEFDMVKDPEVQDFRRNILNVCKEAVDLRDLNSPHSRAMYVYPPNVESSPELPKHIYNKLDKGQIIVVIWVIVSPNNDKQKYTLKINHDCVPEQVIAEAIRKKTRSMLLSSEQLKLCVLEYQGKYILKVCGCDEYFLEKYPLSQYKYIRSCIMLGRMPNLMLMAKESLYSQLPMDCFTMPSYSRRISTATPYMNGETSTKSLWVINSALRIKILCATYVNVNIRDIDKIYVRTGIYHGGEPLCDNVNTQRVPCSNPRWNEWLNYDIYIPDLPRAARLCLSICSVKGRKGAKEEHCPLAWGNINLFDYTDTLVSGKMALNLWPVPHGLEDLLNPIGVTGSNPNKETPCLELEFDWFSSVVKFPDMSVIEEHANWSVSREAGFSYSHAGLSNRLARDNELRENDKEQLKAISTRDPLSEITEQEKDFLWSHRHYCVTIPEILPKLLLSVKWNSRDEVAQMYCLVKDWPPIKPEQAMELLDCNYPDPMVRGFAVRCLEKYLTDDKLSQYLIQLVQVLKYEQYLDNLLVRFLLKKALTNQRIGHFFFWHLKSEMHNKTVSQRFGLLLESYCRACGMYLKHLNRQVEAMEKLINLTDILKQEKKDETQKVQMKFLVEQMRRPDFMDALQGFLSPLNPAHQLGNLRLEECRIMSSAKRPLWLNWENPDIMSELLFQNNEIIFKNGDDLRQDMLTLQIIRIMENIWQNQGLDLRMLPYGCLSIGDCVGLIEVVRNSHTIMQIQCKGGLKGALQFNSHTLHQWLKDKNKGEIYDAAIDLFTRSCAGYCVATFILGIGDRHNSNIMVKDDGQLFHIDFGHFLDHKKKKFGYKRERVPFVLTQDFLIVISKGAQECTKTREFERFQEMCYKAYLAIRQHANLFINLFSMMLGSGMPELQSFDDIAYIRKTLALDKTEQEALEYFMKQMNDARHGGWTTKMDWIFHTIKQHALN

Phosphatidylinositol 4,5-bisphosphate 3-kinase catalytic subunit alpha isoform, sequence (P42336 whole entry, canonical isoform): as the sequence (P42336 whole entry H1047R, canonical isoform) above, with R1047H counted along it

IC50 [1] | IC50 [2] | SMILES
> 10 µM | < 0.25 µM | Cn1nc2ccc(NC(=O)c3cc(F)cc(C(F)(F)F)c3)c3c2c1C(=O)NC3c1cc(Cl)ccc1Cl (stereo unspecified) [US20240158408, Compound YL104]
> 10 µM | < 0.25 µM | Cn1nc2c(-c3ccc4ncnn4c3C#N)cc(NC(=O)c3cc(F)cc(C(F)(F)F)c3)c3c2c1C(=O)NC3c1cc(F)ccc1Cl (stereo unspecified) [US20240158408, Compound YL106]
> 10 µM | < 0.25 µM | Cn1nc2c(-c3ccc4ncnn4c3C#N)cc(NC(=O)c3cc(F)cc(C(F)(F)F)c3)c3c2c1C(=O)NC3c1cc(Cl)ccc1Cl (stereo unspecified) [US20240158408, Compound YL107]
